Values joined by “and” are separate entries in the source; they are usually repeats but may differ in a detail not shown here. Equal values may be shown once.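 96-well plates; 48 h exposure; 5 concentrations. Endpoints by linear interpolation between flanking doses. Not reached: highest tested concentration assigned. TGI is the concentration that stops growth completely.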
What was measured:
Assay in all cases: growth of human tumour cells (NCI), 48 h
786-0 renal = system: 786-0 renal
A498 renal = system: A498 renal
A549 NSCLC = system: A549 NSCLC
ACHN renal = system: ACHN renal
CAKI-1 renal = system: CAKI-1 renal
CCRF-CEM leukemia = system: CCRF-CEM leukemia
COLO 205 colon = system: COLO 205 colon
DLD-1 colon = system: DLD-1 colon
DMS 114 small cell lung = system: DMS 114 small cell lung
DMS 273 small cell lung = system: DMS 273 small cell lung
EKVX NSCLC = system: EKVX NSCLC
HCC-2998 colon = system: HCC-2998 colon
HCT-116 colon = system: HCT-116 colon
HCT-15 colon = system: HCT-15 colon
HL-60(TB) leukemia = system: HL-60(TB) leukemia
HOP-62 NSCLC = system: HOP-62 NSCLC
HOP-92 NSCLC = system: HOP-92 NSCLC
IGROV1 ovarian = system: IGROV1 ovarian
K-562 leukemia = system: K-562 leukemia
KM12 colon = system: KM12 colon
KM20L2 colon = system: KM20L2 colon
LOX IMVI melanoma = system: LOX IMVI melanoma
LXFL 529 NSCLC = system: LXFL 529 NSCLC
M14 melanoma = system: M14 melanoma
M19-MEL melanoma = system: M19-MEL melanoma
MOLT-4 leukemia = system: MOLT-4 leukemia
NCI-H23 lung = system: NCI-H23 lung
NCI-H460 lung = system: NCI-H460 lung
OVCAR-3 ovarian = system: OVCAR-3 ovarian
OVCAR-4 ovarian = system: OVCAR-4 ovarian
OVCAR-8 ovarian = system: OVCAR-8 ovarian
RPMI-8226 leukemia = system: RPMI-8226 leukemia
RXF 393 renal = system: RXF 393 renal
SF-268 CNS = system: SF-268 CNS
SF-295 CNS = system: SF-295 CNS
SF-539 CNS = system: SF-539 CNS
SK-MEL-2 melanoma = system: SK-MEL-2 melanoma
SK-MEL-28 melanoma = system: SK-MEL-28 melanoma
SK-MEL-5 melanoma = system: SK-MEL-5 melanoma
SK-OV-3 ovarian = system: SK-OV-3 ovarian
SN12C renal = system: SN12C renal
SNB-19 CNS = system: SNB-19 CNS
SNB-75 CNS = system: SNB-75 CNS
SNB-78 CNS = system: SNB-78 CNS
SR leukemia = system: SR leukemia
SW-620 colon = system: SW-620 colon
TK-10 renal = system: TK-10 renal
U251 CNS = system: U251 CNS
UACC-257 melanoma = system: UACC-257 melanoma
UACC-62 melanoma = system: UACC-62 melanoma
UO-31 renal = system: UO-31 renal
XF 498 CNS = system: XF 498 CNS
HT29 colon = system: HT29 colon
MALME-3M melanoma = system: MALME-3M melanoma
NCI-H226 lung = system: NCI-H226 lung
NCI-H522 lung = system: NCI-H522 lung
OVCAR-5 ovarian = system: OVCAR-5 ovarian

Measured: TGI

COC(=O)C1CCC(=O)N1/C(C)=N/NC(=O)Nc1ccc(Cl)c(Cl)c1 (stereo unspecified)
68.7 µM: HCT-15 colon
not listed: HT29 colon | MALME-3M melanoma | NCI-H226 lung | NCI-H522 lung | OVCAR-5 ovarian
> 100 µM: all other assays above

OCC(O)C(O)C(O)C(O)c1nn[nH]n1 (stereo unspecified)
88.1 µM and > 100 µM: SNB-75 CNS
not listed: A498 renal | HCC-2998 colon | KM20L2 colon | RXF 393 renal | SK-MEL-28 melanoma | SNB-19 CNS | TK-10 renal | UACC-257 melanoma
> 100 µM: all other assays above

Reference: PubChem BioAssay (NCI)
